Data set [1] is described as follows: Tissue distribution study. In kind it is in vivo, mice. To be noted: mouse, 20 mg/kg. On the procedure:
Agilent 1290 UHPLC system and 6420 series Triple‐Quadrupole Tandem Mass Spectrometer (Agilent Corporation) maintained at 35°C with a ZORBAX Eclipse Plus C18 column (1.8 μm, 2.1 × 50 mm). The mobile phase was a gradient elution program consisting of solvent A with solvent B at a flow rate of 0.4 ml/min. Mobile phase A was 0.1% formic acid in water (v/v), and mobile phase B was acetonitrile. The optimal gradient elution program was as follows: 0–0.5 min, linear from 80% to 5% A; 0.5–1.5 min, 5% A; 1.5–1.6 min, linear from 5% to 80% A. The post‐time was 1.3 min for equilibration of the column and the total runtime was 1.8 min. The mass spectrometer was acquired in an ESI‐positive mode with multiple reaction monitoring (MRM). Instrument control and data acquisition were performed on the MassHunter Agilent Software (version B.07.00).
The desolation gas (nitrogen) flow was set to 10 L/h: the capillary voltage: 4000 V; nebulizing gas and drying gas (both nitrogen): 45 psi and 350°C, respectively. The MRM mode with m/z 282.2→76.9 for C1632 and m/z 282.1→194.0 for IS was used for quantitative analysis.
Twenty‐four mice were randomly divided into four groups (six mice for each group, one group for each time point) and received 20 mg/kg […] of C1632 by oral administration. The mice were euthanized by decapitation at 0 (blank group), 0.25, 2 and 6 h after C1632 was given. Tissues were collected and washed with normal saline, then homogenized and subjected to sample preparation. Subsequently, the concentration of C1632 was determined by UHPLC‐MS/MS.

Data set [2] has as its system A549R cells. Description: Edu staining assay. In kind it is cell-based, human. To be noted: A549R, 15, 30 or 60 mg/L, 5 days, dose-dependent. As to the method:
(§1) Edu staining assay was carried out according to Edu staining Kit (Beyotime). First, A549 or A549R cells were seeded in 6‐well plates and cultured in RPMI medium 1640 containing 10% FBS, then treated with C1632 (15, 30, or 60 mg/L) for 5 days. Subsequently, cells were incubated with Edu for 3 h, fixed with 4% paraformaldehyde for 15 min, and permeated with 0.3% Triton X‐100 for another 15 min. Then cells were incubated with the Click Reaction Mixture provided by Edu staining Kit for 30 min at room temperature in dark and then stained with DAPI. Finally, the stained cells were scanned and imaged under Nikon Ti microscope.

Data set [3] deals with A549 cells. Description: Edu staining assay. The data set is classed as cell-based, human. To be noted: A549, 15, 30 or 60 mg/L, 5 days, dose-dependent. As to the method: as §1
The next data set relates to A549R xenograft tumours. Nature of the data set: NSCLC A549R xenograft model. In kind it is in vivo, mice. As to the method: A total of 1.0 × 10^6 A549R cells were inoculated subcutaneously into the dorsal flank of the nude mice in 100 µl phosphate‐buffered saline (PBS). Mice were randomly divided into control and C1632 treatment groups (n = 4 per group). Mice were i.p. injected every other day for 18 days (A549R) at a dose of 30 mg/kg in 100 µl PBS per mouse. The tumours were resected, and their size was estimated from the measurements of weight or the longest diameter across the tumour and the corresponding perpendicular diameter.

The test system of data set [4] is A549R cells. Nature of the data set: SA-β gal staining assay. The data set is classed as cell-based, human. To be noted: A549R, 15, 30 and 60 mg/L, 5 days. On the procedure: (§2) The assay was set up following the β‐galactosidase (SA‐β gal) staining Kit, which was obtained from Sigma. In brief, cells were washed once with PBS and fixed with stationary liquid provided in the kit at room temperature for 15 min. Next, the cells were incubated overnight at 37°C in dark with the 1 ml working solution containing 0.05 mg/ml 5‐bromo‐4‐chloro‐3‐indolyl‐b‐d‐galactopyranoside (X‐gal) and observed under a normal light microscope (Nikon).

Data set [5] relates to A549 cells. Nature of the data set: SA-β gal staining assay. The conditions noted are these: A549, 15, 30 and 60 mg/L, 5 days. In kind it is cell-based, human. On the procedure: as §2
The subject of data set [6] is A549R cells. Description: Transwell migration and invasion assay. The data set is classed as cell-based, human. To be noted: pretreated 5 days, 24 h. On the procedure: (§3) Transwell assay was carried out according to the manufacturer's instructions provided by Transwell Kit (Corning Costar). Briefly, cells were pretreated with indicated concentrations of C1632 for 5 days, then harvested and re‐seeded into insert (transwell permeable support) containing 100 μl serum‐free DMEM medium. The insert was placed into 24‐well plate containing 600 μl of DMEM medium extra added with 10% FBS. 24 h later, cells on the upper surface of the insert were removed with cotton‐tipped swabs. And cells on backside surface of the insert were fixed with 10% formalin, then stained with crystal violet. The insert was washed three times with ddH2O before it is subjected to Nikon Ti microscope observation. Additionally, these inserts were dissolved in 500 μl acetic acid (33%) separately, and the absorbance at 560 nm was detected by the spectrophotometer (DTX880, Beckman Coulter).

For data set [7], the system named is A549 cells. Description: Transwell migration and invasion assay. The data set is classed as cell-based, human. To be noted: A549, pretreated 5 days, 24 h. As to the method: as §3
Data set [8] deals with focal adhesion kinase (FAK). Nature of the data set: Western blot of p-FAK. The data set is classed as cell-based, human. The conditions noted are these: A549 and A549R cells, 5 days. As to the method:
(§4) The total cell protein was extracted and denaturized at 95°C for 10 min. Samples were separated in SDS‐PAGE gel, then transferred to a PVDF membrane. Then this membrane was blocked with 5% non‐fat milk (solved in TBST) for 2.5 h at room temperature. Blots were probed with relevant primary antibodies against FGFR1 (CST), p‐FGFR1 (CST), MAPK (CST), p‐MAPK (CST), FAK (CST), p‐FAK (CST), MMP‐9 (CST), LIN28B (CST), GAPDH (CST), and β‐actin (proteintech) overnight at 4°C, respectively. Then the lanes were detected with HRP‐conjugated secondary antibodies and visualized using WESTAR SUPERNOVA kit (CYANAGEN).
(In western blotting, separated proteins are transferred to a membrane and probed.)

Data set [9] concerns focal adhesion kinase (FAK). Nature of the data set: Immunofluorescence assay of FAK. The data set is classed as cell-based, human. The conditions noted are these: A549R cells, 5 days, concentration-dependent. On the procedure: Performing the immunofluorescence (IF) assay as previously described.[39] Briefly, cells were seeded to slide, fixed with 4% paraformaldehyde, and permeabilized using 0.5% Triton X‐100. Next, cells were incubated with primary antibodies against FAK (CST), followed by incubating with secondary antibodies (DyLight 488‐conjugated anti‐mouse). DAPI was used to stain the nuclear. The fluorescence image was captured by using Nikon Ti microscope and the quantitative analysis was carried out by ImageJ.

Data set [10] relates to matrix metalloproteinase-9 (MMP-9). Nature of the data set: Western blot of MMP-9. The conditions noted are these: A549 and A549R cells, 5 days. The data set is classed as cell-based, human. As to the method:
as §4

Entries after “also recorded” stand apart in the source; their conditions may differ.

`CC(=O)N(C)c1cccc(-c2ccc3nnc(C)n3n2)c1` [C1632]: in data set [1], the “level of C1632 in the brain” value is “remained low”. Besides, in data set [1] (0.25 h, followed by kidney, heart and spleen), the “tissues with the highest level of C1632” value is “highest in the lung and liver”. Besides, the Tmax in data set [1] (tissues (major organs), homogenized, oral administration, sampled at 0.25, 2 and 6 h, read-out: time of peak concentration in major organs) is 15 min. Moreover, the DNA replication entry in the data set on A549R cells [2] and with A549 cells [3] was “significant inhibition” in each case. Moreover, the “body weight of mice” value in the data set on A549R xenograft tumours (30 mg/kg every 2 days for 18 days) is reported as “did not affect”. Besides, the “growth of xenograft tumour cells (tumour volume over treatment period)” value in the data set on A549R xenograft tumours (30 mg/kg every 2 days for 18 days, time-dependent) is reported as “suppressed”. Besides, the “tumour size (weight), mean ± SD” value in the data set with A549R xenograft tumours (30 mg/kg every 2 days, after 18 days, n = 4, untreated 2.35 ± 0.43 g, p < 0.05) stood at 1.36 ± 0.27 g. The “senescence (β-gal positive cells)” value was “induce the senescence” with A549R cells [4] and “did not induce the senescence; also recorded: did not significantly increase” in the data set with A549 cells [5]. The “Transwell migration compared with untreated cells” value with A549R cells [6] and in the data set with A549 cells [7] was “decreased migration” each time. The “phosphorylation of FAK” value in data set [8] was “efficiently decreased”. Besides, the “distribution and foci formation of FAK” value in data set [9] is given as “reduced”. Moreover, in [10], the “expression of MMP-9” value is “efficiently decreased”.

The values above are taken from article PMC8743659, “C1632 suppresses the migration and proliferation of non‐small‐cell lung cancer cells involving LIN28 and FGFR1 pathway” (Journal of Cellular and Molecular Medicine, 2021).
